# In patent US20080275058A1, “N-Substituted-1H-Quinoline-2,4-Diones, Preparation Method Thereof, And Pharmaceutical Composition Containing The Same” (KOREA RESEARCH INSTITUTE OF CHEMICAL TECHNOLOGY, priority 2005, published 2008):
# Like-named read-outs stand apart in the source and are kept apart here.
# Legend:
# [1] = biological target: T1, Human serotonin 5-HT6 receptor (Homo sapiens, UniProt P50406); test: [3H]LSD binding assay on cloned 5-HT6 receptor membranes
# T1 construct: made in house; host or cells: insect Sf21 cells (baculovirus vector BacPAK8)
# T1 sequence (P50406 whole entry): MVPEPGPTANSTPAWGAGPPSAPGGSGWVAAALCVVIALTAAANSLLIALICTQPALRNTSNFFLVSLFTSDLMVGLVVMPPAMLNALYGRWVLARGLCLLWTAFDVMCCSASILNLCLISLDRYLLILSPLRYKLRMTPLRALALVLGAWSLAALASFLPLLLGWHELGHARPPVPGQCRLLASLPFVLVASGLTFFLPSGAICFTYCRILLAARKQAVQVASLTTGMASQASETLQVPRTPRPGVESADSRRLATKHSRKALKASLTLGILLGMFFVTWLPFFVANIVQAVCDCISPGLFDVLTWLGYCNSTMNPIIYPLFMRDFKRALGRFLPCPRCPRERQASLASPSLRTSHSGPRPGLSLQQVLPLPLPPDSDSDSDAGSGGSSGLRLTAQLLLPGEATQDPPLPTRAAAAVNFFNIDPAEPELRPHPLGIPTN
# 5-HT7 = biological target: T2, 5-HT7 (Homo sapiens, UniProt P34969); test: Radioligand binding, 5-HT7 ([3H]LSD); details: Table 4; [3H]LSD 3 nM; read-out: Binding affinity, IC50 (nM) 5-HT7
# T2 construct: purchased Euroscreen/BioSignal Packard Inc
# T2 sequence (P34969 whole entry): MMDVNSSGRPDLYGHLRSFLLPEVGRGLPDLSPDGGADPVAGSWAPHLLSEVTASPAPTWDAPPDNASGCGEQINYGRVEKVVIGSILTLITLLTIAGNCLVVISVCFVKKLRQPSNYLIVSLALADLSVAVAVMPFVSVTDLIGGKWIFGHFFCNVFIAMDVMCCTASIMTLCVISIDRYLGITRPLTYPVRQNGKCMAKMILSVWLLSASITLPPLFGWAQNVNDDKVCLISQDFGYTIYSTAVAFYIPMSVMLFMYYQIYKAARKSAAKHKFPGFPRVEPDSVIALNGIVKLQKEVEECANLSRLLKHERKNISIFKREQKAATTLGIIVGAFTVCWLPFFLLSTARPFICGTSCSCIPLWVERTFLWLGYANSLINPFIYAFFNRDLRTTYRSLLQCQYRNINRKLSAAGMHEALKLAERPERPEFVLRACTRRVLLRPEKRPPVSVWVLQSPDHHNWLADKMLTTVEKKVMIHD
# 5-HT1a = biological target: T3, 5-HT1a (Homo sapiens, UniProt P08908); test: Radioligand binding, 5-HT1a ([3H]8-OH-DPAT); details: Table 4; [3H]8-OH-DPAT 0.5 nM; read-out: Binding affinity, IC50 (nM) 5-HT1a
# T3 construct: purchased Euroscreen/BioSignal Packard Inc
# T3 sequence (P08908 1-422): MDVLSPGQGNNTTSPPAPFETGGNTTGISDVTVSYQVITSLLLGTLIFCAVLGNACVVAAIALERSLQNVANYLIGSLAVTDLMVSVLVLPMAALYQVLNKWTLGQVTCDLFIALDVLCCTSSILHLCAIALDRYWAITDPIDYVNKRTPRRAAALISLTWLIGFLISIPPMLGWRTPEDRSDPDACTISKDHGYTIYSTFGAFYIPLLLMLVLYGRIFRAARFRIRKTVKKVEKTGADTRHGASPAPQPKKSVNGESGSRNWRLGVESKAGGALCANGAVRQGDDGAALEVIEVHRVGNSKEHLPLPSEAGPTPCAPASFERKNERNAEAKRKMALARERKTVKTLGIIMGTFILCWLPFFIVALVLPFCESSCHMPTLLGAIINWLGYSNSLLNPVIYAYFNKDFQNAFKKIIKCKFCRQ
# Summary of the method: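 Membranes bearing the receptor, bought in; radioligand displacement run per supplier protocol.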
# 5-HT2a = biological target: T4, 5-HT2a (Homo sapiens, UniProt P28223); test: Radioligand binding, 5-HT2a ([3H]Ketanserin); details: Table 4; [3H]Ketanserin 1 nM; read-out: Binding affinity, IC50 (nM) 5-HT2a
# T4 construct: purchased Euroscreen/BioSignal Packard Inc
# T4 sequence (P28223 whole entry): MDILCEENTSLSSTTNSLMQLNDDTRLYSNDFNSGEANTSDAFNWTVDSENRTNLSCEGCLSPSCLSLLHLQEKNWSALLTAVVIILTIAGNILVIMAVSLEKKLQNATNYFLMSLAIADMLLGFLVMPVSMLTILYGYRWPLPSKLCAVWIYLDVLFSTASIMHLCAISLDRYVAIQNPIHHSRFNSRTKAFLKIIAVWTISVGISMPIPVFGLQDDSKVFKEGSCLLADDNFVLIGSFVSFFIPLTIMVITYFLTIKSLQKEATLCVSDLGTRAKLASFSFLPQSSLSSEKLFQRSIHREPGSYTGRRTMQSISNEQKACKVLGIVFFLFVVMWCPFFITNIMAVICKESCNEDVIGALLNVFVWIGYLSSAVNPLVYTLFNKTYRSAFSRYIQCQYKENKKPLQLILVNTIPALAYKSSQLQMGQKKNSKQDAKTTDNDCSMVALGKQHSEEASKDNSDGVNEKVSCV
# 5-HT2c = biological target: T5, 5-HT2c (Homo sapiens, UniProt P28335); test: Radioligand binding, 5-HT2c ([3H]Mesulergine); details: Table 4; [3H]Mesulergine 1 nM; read-out: Binding affinity, IC50 (nM) 5-HT2c
# T5 construct: purchased Euroscreen/BioSignal Packard Inc
# T5 sequence (P28335 33-458): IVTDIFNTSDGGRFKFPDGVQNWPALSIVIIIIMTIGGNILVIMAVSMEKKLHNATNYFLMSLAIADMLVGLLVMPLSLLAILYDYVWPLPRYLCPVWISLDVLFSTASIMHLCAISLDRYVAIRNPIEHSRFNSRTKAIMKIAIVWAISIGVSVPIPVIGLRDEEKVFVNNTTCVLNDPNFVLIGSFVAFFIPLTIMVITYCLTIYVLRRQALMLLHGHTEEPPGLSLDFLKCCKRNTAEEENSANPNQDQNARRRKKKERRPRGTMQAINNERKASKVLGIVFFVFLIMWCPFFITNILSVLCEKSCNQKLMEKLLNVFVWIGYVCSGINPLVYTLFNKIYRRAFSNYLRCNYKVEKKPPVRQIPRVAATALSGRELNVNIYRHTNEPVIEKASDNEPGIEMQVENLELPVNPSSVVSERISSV
# D1 = D1 (Homo sapiens, UniProt P21728); test: Radioligand binding, dopamine D1; details: Table 4; read-out: Binding affinity, IC50 (nM) D1
# D1, sequence (P21728 whole entry): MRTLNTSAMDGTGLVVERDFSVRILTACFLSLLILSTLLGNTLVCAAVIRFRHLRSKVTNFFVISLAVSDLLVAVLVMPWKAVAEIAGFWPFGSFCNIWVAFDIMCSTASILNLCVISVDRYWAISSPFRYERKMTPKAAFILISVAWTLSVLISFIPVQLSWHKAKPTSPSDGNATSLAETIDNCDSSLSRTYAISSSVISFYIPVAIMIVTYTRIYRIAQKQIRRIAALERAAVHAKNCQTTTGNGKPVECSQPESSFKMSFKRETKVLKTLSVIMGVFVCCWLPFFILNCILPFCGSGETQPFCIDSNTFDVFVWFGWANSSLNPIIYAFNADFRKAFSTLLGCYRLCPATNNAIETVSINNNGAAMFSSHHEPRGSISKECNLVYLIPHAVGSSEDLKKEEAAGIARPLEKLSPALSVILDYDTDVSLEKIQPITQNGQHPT
# hD2L = biological target: T6, hD2L (Homo sapiens, UniProt P14416); test: Radioligand binding, dopamine D2 ([3H]spiperone); details: Table 4; [3H]spiperone 1 nM; read-out: Binding affinity, IC50 (nM) D2
# T6 construct: purchased BioSignal Packard Inc., Montreal, Canada
# T6 sequence (P14416 whole entry): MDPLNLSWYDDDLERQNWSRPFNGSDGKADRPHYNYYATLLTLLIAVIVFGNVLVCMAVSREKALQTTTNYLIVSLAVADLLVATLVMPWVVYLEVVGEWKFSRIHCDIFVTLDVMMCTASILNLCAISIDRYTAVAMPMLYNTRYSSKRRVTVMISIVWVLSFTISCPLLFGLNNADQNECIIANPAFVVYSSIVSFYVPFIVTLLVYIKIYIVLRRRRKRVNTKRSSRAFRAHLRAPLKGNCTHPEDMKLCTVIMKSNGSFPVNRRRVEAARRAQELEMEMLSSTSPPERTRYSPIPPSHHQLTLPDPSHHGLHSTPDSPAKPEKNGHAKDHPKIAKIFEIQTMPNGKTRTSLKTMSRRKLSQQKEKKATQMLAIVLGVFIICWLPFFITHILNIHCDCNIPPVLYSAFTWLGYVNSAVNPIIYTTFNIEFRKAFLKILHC
# Summary of the method: (§1)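 IC50 values come from nonlinear fits of three displacement experiments, each using 7-8 test concentrations in duplicate. D2L and D3 membranes were labelled with 1 nM [3H]spiperone, and D4.2 with 0.06 nM [3H]YM-09151-2. All assays used pH 7.4 Tris buffers, with the D3 buffer adding 120 mM NaCl, KCl and CaCl2.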
# hD3 = biological target: T7, hD3 (Homo sapiens, UniProt P35462); test: Radioligand binding, dopamine D3 ([3H]spiperone); details: Table 4; [3H]spiperone 1 nM; read-out: Binding affinity, IC50 (nM) D3
# T7 construct: purchased BioSignal Packard Inc., Montreal, Canada
# T7 sequence (P35462 whole entry): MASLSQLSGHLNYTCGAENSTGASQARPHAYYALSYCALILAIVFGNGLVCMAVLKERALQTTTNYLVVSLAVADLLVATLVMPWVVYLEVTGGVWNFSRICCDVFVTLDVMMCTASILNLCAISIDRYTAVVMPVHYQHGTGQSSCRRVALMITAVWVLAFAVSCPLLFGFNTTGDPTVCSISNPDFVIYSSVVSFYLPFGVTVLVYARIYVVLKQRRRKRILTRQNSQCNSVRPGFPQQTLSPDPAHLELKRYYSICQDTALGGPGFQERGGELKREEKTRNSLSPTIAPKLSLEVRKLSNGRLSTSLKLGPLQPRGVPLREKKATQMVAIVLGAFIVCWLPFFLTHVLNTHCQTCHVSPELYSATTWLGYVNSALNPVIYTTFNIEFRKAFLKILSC
# Summary of the method: as §1
# hD4.2 receptor = biological target: T8, hD4.2 receptor (Homo sapiens, UniProt P21917, DEL265-296); test: Radioligand binding, dopamine D4 ([3H]YM-09151-2); details: Table 4; [3H]YM-09151-2 0.06 nM; read-out: Binding affinity, IC50 (nM) D4
# T8 construct: purchased BioSignal Packard Inc., Montreal, Canada
# T8 sequence (P21917 with tags, fused parts or gaps DEL265-296): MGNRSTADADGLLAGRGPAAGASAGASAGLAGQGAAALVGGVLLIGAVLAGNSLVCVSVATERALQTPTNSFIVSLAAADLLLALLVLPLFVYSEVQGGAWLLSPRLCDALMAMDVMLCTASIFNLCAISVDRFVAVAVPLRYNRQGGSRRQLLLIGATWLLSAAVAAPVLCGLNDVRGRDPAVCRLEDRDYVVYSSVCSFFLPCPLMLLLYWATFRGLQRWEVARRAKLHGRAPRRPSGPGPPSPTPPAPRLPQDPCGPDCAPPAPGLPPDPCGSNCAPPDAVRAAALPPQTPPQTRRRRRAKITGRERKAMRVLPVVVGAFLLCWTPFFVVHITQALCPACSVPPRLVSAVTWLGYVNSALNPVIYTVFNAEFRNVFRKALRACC
# Summary of the method: as §1
# Rotarod deficit in mice = format: in vivo, mouse; details: mouse, in vivo, po, unit printed as image, read-out: TD50 (median neurotoxic dose)
# Procedure: (§2) The mouse was placed on a 1 inch diameter knurled plastic rod rotating at 6 rpm (Ugo-Basile, Milano, Italy), and the rotarod deficit (%) was obtained by counting the number of animals fallen from the rotating rod within 1 min [Dunham et al., 1957] at 60, 90 and 120 min after the injection of the compound according to the invention(200, 300 or 400 ? ). […] The compounds of the examples were suspended in 3% Tween 80 solution, and were administered (p.o.) 60 min before the testing.
# mice = test: Rotarod deficit in mice; format: in vivo, mouse
# Procedure: as §2
# [2] = Table 2, 1.87 nM [3H]LSD, 37 C, 60 min, read-out: IC50 (nM), binding affinity to the 5-HT6 receptor
# [3] = Table 4, read-out: Binding affinity, IC50 (nM) 5-HT6
SMILES,"IC50 [1, 2] [nM]","IC50 [1, 3] [nM]",IC50 (5-HT7) [nM],IC50 (5-HT1a) [nM],IC50 (5-HT2a) [nM],IC50 (5-HT2c) [nM],IC50 (D1) [nM],IC50 (hD2L) [nM],IC50 (hD3) [nM],IC50 (hD4.2 receptor) [nM],TD50 at 120 min (Rotarod deficit in mice) [mg/kg],Rotarod deficit (%) (mice; 200 p.o. (dose unit not given)),Rotarod deficit (%) (mice; 300 p.o. (dose unit not given)),Rotarod deficit (%) (mice; 400 p.o. (dose unit not given)),melting point [°C],"binding affinity at 5-HT6 receptor labeled by [3H]LSD, in words ([1]; comment on Table 2)"
"COc1ccc(C2(C)C(=O)c3c(N4CCNCC4)cc(Cl)cc3N(Cc3cccc(OC)c3)C2=O)cc1 (stereo not drawn) [Example 27, 7-Chloro-1-(3-methoxy-benzyl)-3-(4-methoxy-phenyl)-3-methyl-5-piperazin-1-yl-1H-quinoline-2,4-dione]",2.3,2.3,> 1000,> 10000,> 1000,> 1000,> 1000,> 1000,2640,> 10000,> 400,0,0,0,110 to 112,–
"COc1ccc(C2(C)C(=O)c3c(N4CCNCC4)cc(Cl)cc3N(Cc3ccc4ccccc4c3)C2=O)cc1 (stereo not drawn) [Example 39, 7-Chloro-3-(4-methoxy-phenyl)-3-methyl-1-naphthalen-2-ylmethyl-5-piperazin-1-yl-1H-quinoline-2,4-dione]",4.7,4.7,> 1000,> 10000,> 1000,> 1000,> 1000,> 1000,> 1000,> 10000,> 400,0,0,0,169 to 170,–
"CN1CCN(c2cc(Cl)cc3c2C(=O)C(C)(c2ccc(OCc4ccccc4)c(Br)c2)C(=O)N3Cc2ccccc2)CC1 (stereo not drawn) [Example 12, 1-Benzyl-3-(4-benzyloxy-3-bromo-phenyl)-7-chloro-3-methyl-5-(4-methyl-piperazin-1-yl)-1H-quinoline-2,4-dione]",9.2,9.2,136,2520,95,1290,1240,6450,153,> 10000,> 400,0,0,0,95 to 97,–
"CC1(c2ccc(O)cc2)C(=O)c2c(N3CCNCC3)cc(Cl)cc2N(Cc2cccc([N+](=O)[O-])c2)C1=O (stereo not drawn) [Example 24, 7-Chloro-3-(4-hydroxy-phenyl)-3-methyl-1-(3-nitro-benzyl)-5-piperazin-1-yl-1H-quinoline-2,4-dione]",14.5,14.5,> 10000,> 10000,5040,6090,4930,3000,2330,> 10000,> 400,0,0,0,252 to 253,–
"COc1ccc(C2(C)C(=O)c3c(N4CCN(C)CC4)cc(Cl)cc3N(Cc3cccc(N)c3)C2=O)cc1 (stereo not drawn) [Example 9, 1-(3-Amino-benzyl)-7-chloro-3-(4-methoxy-phenyl)-3-methyl-5-(4-methyl-piperazin-1-yl)-1H-quinoline-2,4-dione]",5.2,5.2,> 10000,> 10000,> 10000,> 10000,> 10000,> 10000,821,> 10000,> 400,0,0,0,90 to 93,–
"COc1ccc(C2(C)C(=O)c3c(N4CCNCC4)cc(Cl)cc3N(Cc3cccc(Br)c3)C2=O)cc1 (stereo not drawn) [Example 33, 1-(3-Bromo-benzyl)-7-chloro-3-(4-methoxy-phenyl)-3-methyl-5-piperazin-1-yl-1H-quinoline-2,4-dione]",1.8,1.8,> 10000,> 1000,> 1000,> 1000,> 1000,> 1000,> 1000,> 10000,> 400,0,0,0,113 to 114,significant affinities
"CCNc1ccc([C@]2(C)C(=O)c3c(N4CCN(C)CC4)cc(Cl)cc3N(Cc3ccccc3)C2=O)cc1 (stereo in doubt) [Example 6, 1-Benzyl-7-chloro-3-(4-ethylamino-phenyl)-3-methyl-5-(4-methyl-piperazin-1-yl)-1H-quinoline-2,4-dione]",3.4,3.4,> 1000,> 10000,> 1000,> 1000,> 1000,> 1000,981,> 10000,> 400,0,0,0,153 to 155,–
"C[C@@]1(c2ccc(O)cc2)C(=O)c2c(N3CCNCC3)cc(Cl)cc2N(Cc2ccccc2)C1=O [Example 14-2, (R)-1-Benzyl-7-chloro-3-(4-hydroxy-phenyl)-3-methyl-5-piperazin-1-yl-1H-quinoline-2,4-dione]",13.3,13.3,9240,5890,6380,> 10000,1540,> 10000,1760,> 10000,> 400,0,0,0,–,–
